The series can be described thus: Heat sensitivity of olanzapine Form I wet crystals dried in an air tray drier; Form II content quantified by XRPD. The note with it: 8 hours, LOQ about 0.5% by weight. It counts as physicochemical. The procedure:
Olanzapine Form I wet crystals obtained by following the process similar to that given in Example 1 were taken and dried at different temperatures in an air tray drier for 8 hours to check the impact on the crystalline purity of Form I obtained. The results are tabulated below in Table 1:
497.5 mg of olanzapine Form I and 2.5 mg of olanzapine Form II (weight ratio of olanzapine Form Ito Form II of 99.5:0.5) were weighed and mixed with 50.0 mg of lithium fluoride. The mixture was mixed and ground three times using a mortar and pestle made of agate to get a homogeneous fine powder. A maximum quantity of the finely ground sample was packed in a sample holder and this was used as the standard for powder X-ray diffraction analysis.
500 mg of olanzapine Form I test sample was weighed and mixed with 50 mg of lithium fluoride. The mixture was mixed and ground three times using a mortar and pestle made of agate to get a homogeneous fine powder. A maximum quantity of the finely ground sample was packed in a sample holder and this was used as the test sample for the analysis.
The standard and the test sample were analyzed and the intensity at 8.60° (2θ) in the diffractogram of the test sample was compared with respect to that of the 0.5% standard. If the test sample intensity at 8.60° (2θ) is more than that of the 0.5% standard, then the presence of Form II in Form I is more than 0.5%. If the test sample intensity at 8.60° (2θ) is less than that of the 0.5% standard, then the presence of Form II in Form I is less than 0.5%.

This note sets out measurements from patent US20100174066A1, “PROCESS FOR PREPARING CRYSTALLINE FORM I OF OLANZAPINE” (priority 2005, published 2010).

For `Cc1cc2c(s1)Nc1ccccc1N=C2N1CCN(C)CC1` [Olanzapine Form I, 2-methyl-4-(4-methyl-1-piperazinyl)-10H-thieno[2,3-b][1,5]benzodiazepine], the “Form II content (%)” value by setting is: (drying temperature 60 °C) “Less than 0.5%”; (drying temperature 75-80 °C) “Less than 0.5%”; (drying temperature 100 °C) “Less than 0.5%”; (drying temperature 125 °C) “More than 0.5%”; (drying temperature 150 °C) “More than 0.5%”; (drying temperature 180 °C) “More than 0.5%”.
